# Experimental data reported in US20240108598A1, “Danegaptide for Use in the Treatment or Prevention of a Kidney Disease” (CIANA THERAPEUTICS APS, priority 2021, published 2024).
# Assays:
# HK2 cells = experiment: Transepithelial electrical resistance (TER); format: cell-based, human; settings: HK2 cells on transwell inserts
# Description: Primary hPTECs were cultured in low (5 mM) glucose±TGFβ1 (10 ng/mL)±danegaptide (100 nM) for 48 h. Expression of E-cadherin (ECAD), N-cadherin (NCAD) and vimentin (panel A), and Claudin-2 and Zonula Occludens (ZO-1) and b-catenin (panel B) were assessed via western blotting. TGFβ1 reduced E-cadherin, Claudin-2 and ZO-1 expression and increased N-cadherin and vimentin expression (**P<0.01, ***P<0.001; mean±SEM, n=3). Effects were partially or completely reversed by danegaptide (100 nM; ▴P<0.05 and ▴▴▴P<0.001; mean±SEM, n=3). Representative blots for each protein are shown, with expression normalised by re-probing for α-tubulin as a loading control. In panel C, transepithelial electrical resistance (TER) assessed the consequence of altered adherens & tight-junction protein expression on epithelial integrity. HK2 cells were cultured in low (5 mM) glucose on transwell inserts and transepithelial resistance measured.
# To determine if danegaptide can negate TGFβ1-mediated changes in adherens and tight junction proteins, hPTECs were incubated with TGFβ1 (10 ng/mL)±danegaptide (100 nM) for 48 h and expression of candidate proteins assessed by Western blotting. […] Bands were visualised using an OdysseyFC and semi-quantified using ImageStudio (v5.2, LI-COR). […]
# primary hPTECs = experiment: Inflammation antibody array, supernatant (Table 2); format: cell-based, human; settings: hPTEC supernatant, 48 h
# Description: An inflammation antibody array was used to assess regulation of 31 candidate inflammatory proteins in supernatant from hPTEC cells treated with TGFβ1±danegaptide. Results are representative of 3 separate experiments and presented as mean±SEM, n=3 with key significances indicated (*P<0.05, **P<0.01, ***P<0.001; one-way ANOVA and Tukey's post-test).
# A proteome profiler array (Human Cytokine Array Kit from R&D Systems, Oxfordshire, UK) was used, to determine if danegaptide negates TGFβ1-induced changes in expression and secretion of key pro-inflammatory mediators. Primary hPTECs were cultured as described above and treated with TGFβ1 (10 ng/mL)±danegaptide (100 nM) for 48 h.
# Cx43 hemichannels = molecular target: T1, Cx43 hemichannels (Homo sapiens, UniProt P17302); experiment: ATP biosensing (hemichannel mediated ATP release); format: cell-based; settings: for ATP release: hPTECs
# T1 construct: host or cells: HK2 human kidney proximal tubule epithelial cell line
# T1 sequence (P17302 whole entry): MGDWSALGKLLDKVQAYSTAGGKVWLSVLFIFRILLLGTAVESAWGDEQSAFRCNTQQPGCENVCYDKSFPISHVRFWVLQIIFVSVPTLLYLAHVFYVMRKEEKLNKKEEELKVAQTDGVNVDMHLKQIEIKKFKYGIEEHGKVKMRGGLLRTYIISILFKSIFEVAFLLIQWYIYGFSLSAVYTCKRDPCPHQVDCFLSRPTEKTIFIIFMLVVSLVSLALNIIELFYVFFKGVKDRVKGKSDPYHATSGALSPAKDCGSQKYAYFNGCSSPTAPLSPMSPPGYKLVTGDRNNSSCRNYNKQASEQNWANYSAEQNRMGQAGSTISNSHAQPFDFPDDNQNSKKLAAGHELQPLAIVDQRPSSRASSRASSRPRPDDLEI
# Description: HK2 cells were cultured in low (5 mM) glucose with/without TGFβ1 (10 ng/ml)±danegaptide (50 or 100 nM) for 48 h. Representative biosensor traces show ATP release following removal of extracellular calcium. […] Peak responses were quantified by comparing against a known concentration of ATP (10 μM) and mean data±SEM plotted (E). Results are representative of 3 separate experiments (n=3; **P<0.01, […] ***P<0.001; one-way ANOVA and Tukey's post-test).
# ATP biosensors (Sarissa Biomedical, Coventry UK) were used in a simultaneous dual-recording ampomeric setup as described previously (Price, G. W.; Chadjichristos, C. E.; Kavvadas, P.; Tang, S. C. W.; Yiu, W. H.; Green, C. R.; Potter, J. A.; Siamantouras, E.; Squires, P. E.; Hills, C. E. Blocking Connexin-43 mediated hemichannel activity protects against early tubular injury in experimental chronic kidney disease. Cell Commun. Signal. 2020, 18). A null biosensor was used to account for non-specific electro-active artefacts and subtracted from the ATP trace. Glycerol (2 mM) was included in all recording solutions to enable ATP detection. HK2 cells were seeded on glass coverslips (10 mm diameter) in low glucose DMEM/F12 (5 mmol/L) for 48 h, prior to an overnight serum-starvation. The cells were then incubated with TGFβ1 (10 ng/ml)±danegaptide (100 nM) for 48 h. The coverslips were transferred to a chamber containing Ca^2+-containing BSS perfused at 6 ml/min (37° C.) and left for 10 min to acclimatise. ATP and null biosensors were bent and lowered so that the electrode laid parallel to the cellular monolayer. Once a stable baseline occurred, perfusion of Ca^2+-free BSS stimulated hemichannel opening. After ATP release, Ca^2+-containing BSS was used to close hemichannels, followed by a calibration solution of ATP ([…]). Recordings were acquired at 4 Hz with a Micro CED (Mark2) interface using Spike (v8.03) software.
compound,measurement,setting,value
"NCC(=O)N1C[C@H](NC(=O)c2ccccc2)C[C@H]1C(=O)O [danegaptide, (2S,4R)-1-(2-aminoacetyl)-4-benzamidopyrrolidine2-carboxylic acid]",transepithelial resistance,HK2 cells; TGFβ1 10 ng/mL + danegaptide 100 nM,36±2.08 Ω·cm2
same,Angiogenin in supernatant (% compared to control),primary hPTECs; TGF-β1 10 ng/mL + DG 100 nM,129 ± 14.7%
same,Cystatin C in supernatant (% compared to control),primary hPTECs; TGF-β1 10 ng/mL + DG 100 nM,88 ± 6.8%
same,DPPIV in supernatant (% compared to control),primary hPTECs; TGF-β1 10 ng/mL + DG 100 nM,179 ± 37.8%
same,ENA 78 in supernatant (% compared to control),primary hPTECs; TGF-β1 10 ng/mL + DG 100 nM,119 ± 3.9%
same,Endoglin in supernatant (% compared to control),primary hPTECs; TGF-β1 10 ng/mL + DG 100 nM,94 ± 5.8%
same,FGF7 in supernatant (% compared to control),primary hPTECs; TGF-β1 10 ng/mL + DG 100 nM,102 ± 16.5%
same,Flt 3 Ligand in supernatant (% compared to control),primary hPTECs; TGF-β1 10 ng/mL + DG 100 nM,103 ± 12.8%
same,G-CSF in supernatant (% compared to control),primary hPTECs; TGF-β1 10 ng/mL + DG 100 nM,117 ± 12.0%
same,GM-CSF in supernatant (% compared to control),primary hPTECs; TGF-β1 10 ng/mL + DG 100 nM,114 ± 3.8%
same,HGF in supernatant (% compared to control),primary hPTECs; TGF-β1 10 ng/mL + DG 100 nM,88 ± 13.7%
same,ICAM-1 in supernatant (% compared to control),primary hPTECs; TGF-β1 10 ng/mL + DG 100 nM,124 ± 16.6%
same,IFNg in supernatant (% compared to control),primary hPTECs; TGF-β1 10 ng/mL + DG 100 nM,90 ± 12.7%
same,IGFBP-2 in supernatant (% compared to control),primary hPTECs; TGF-β1 10 ng/mL + DG 100 nM,90 ± 6.4%
same,IGFBP-3 in supernatant (% compared to control),primary hPTECs; TGF-β1 10 ng/mL + DG 100 nM,84.7 ± 14.3%
same,IL1A in supernatant (% compared to control),primary hPTECs; TGF-β1 10 ng/mL + DG 100 nM,89 ± 21.5%
same,IL3 in supernatant (% compared to control),primary hPTECs; TGF-β1 10 ng/mL + DG 100 nM,107 ± 38.0%
same,IL8 in supernatant (% compared to control),primary hPTECs; TGF-β1 10 ng/mL + DG 100 nM,99 ± 26.4%
same,IL12 p70 in supernatant (% compared to control),primary hPTECs; TGF-β1 10 ng/mL + DG 100 nM,63 ± 15.9%
same,IL13 in supernatant (% compared to control),primary hPTECs; TGF-β1 10 ng/mL + DG 100 nM,62 ± 27.2%
same,Kallikrein 3 in supernatant (% compared to control),primary hPTECs; TGF-β1 10 ng/mL + DG 100 nM,74 ± 20.6%
same,LIF in supernatant (% compared to control),primary hPTECs; TGF-β1 10 ng/mL + DG 100 nM,134 ± 5.4%
same,MCP-1 in supernatant (% compared to control),primary hPTECs; TGF-β1 10 ng/mL + DG 100 nM,101 ± 6.2%
same,MMP-9 in supernatant (% compared to control),primary hPTECs; TGF-β1 10 ng/mL + DG 100 nM,80 ± 8.9%
same,PDGF-AA/BB in supernatant (% compared to control),primary hPTECs; TGF-β1 10 ng/mL + DG 100 nM,99 ± 6.3%
same,RAGE in supernatant (% compared to control),primary hPTECs; TGF-β1 10 ng/mL + DG 100 nM,99 ± 12.5%
same,RANTES in supernatant (% compared to control),primary hPTECs; TGF-β1 10 ng/mL + DG 100 nM,101 ± 12.1%
same,Serpin E1 in supernatant (% compared to control),primary hPTECs; TGF-β1 10 ng/mL + DG 100 nM,81 ± 42.8%
same,TFF3 in supernatant (% compared to control),primary hPTECs; TGF-β1 10 ng/mL + DG 100 nM,98 ± 17.5%
same,TNF-α in supernatant (% compared to control),primary hPTECs; TGF-β1 10 ng/mL + DG 100 nM,139 ± 6.1%
same,Thrombospondin-1 in supernatant (% compared to control),primary hPTECs; TGF-β1 10 ng/mL + DG 100 nM,115 ± 11.9%
same,VEGF in supernatant (% compared to control),primary hPTECs; TGF-β1 10 ng/mL + DG 100 nM,217 ± 49.3%
same,"optimal concentration in the microenvironment (dose finding, dye uptake and ATP biosensing)",Cx43 hemichannels; HK2 cells,50 to 100 nM
same,ATP release,"Cx43 hemichannels; TGFβ1 10 ng/mL + danegaptide 50 nM, 48 h",1.90 ± 0.26 µM
same,ATP release,"Cx43 hemichannels; TGFβ1 10 ng/mL + danegaptide 100 nM, 48 h",0.79 ± 0.19 µM
same,ATP release,Cx43 hemichannels; danegaptide alone 50 nM,0.35 ± 0.10 µM
same,ATP release,Cx43 hemichannels; danegaptide alone 100 nM,0.31 ± 0.09 µM
TGFβ1: Recombinant hTGFβ1 (Sigma); pro-fibrotic cytokine used to stimulate the cells [reference compound],transepithelial resistance,HK2 cells; TGFβ1 10 ng/mL alone,10±1.53 Ω·cm2
same,Angiogenin in supernatant (% compared to control),primary hPTECs; TGF-β1 10 ng/mL alone,184 ± 13.2%
same,Cystatin C in supernatant (% compared to control),primary hPTECs; TGF-β1 10 ng/mL alone,169 ± 19.7%
same,DPPIV in supernatant (% compared to control),primary hPTECs; TGF-β1 10 ng/mL alone,222 ± 24.3%
same,ENA 78 in supernatant (% compared to control),primary hPTECs; TGF-β1 10 ng/mL alone,193 ± 17.7%
same,Endoglin in supernatant (% compared to control),primary hPTECs; TGF-β1 10 ng/mL alone,101 ± 10.6%
same,FGF7 in supernatant (% compared to control),primary hPTECs; TGF-β1 10 ng/mL alone,125 ± 11.3%
same,Flt 3 Ligand in supernatant (% compared to control),primary hPTECs; TGF-β1 10 ng/mL alone,179 ± 6.5%
same,G-CSF in supernatant (% compared to control),primary hPTECs; TGF-β1 10 ng/mL alone,171 ± 7.3%
same,GM-CSF in supernatant (% compared to control),primary hPTECs; TGF-β1 10 ng/mL alone,213 ± 33.3%
same,HGF in supernatant (% compared to control),primary hPTECs; TGF-β1 10 ng/mL alone,85 ± 15.8%
same,ICAM-1 in supernatant (% compared to control),primary hPTECs; TGF-β1 10 ng/mL alone,191 ± 13.0%
same,IFNg in supernatant (% compared to control),primary hPTECs; TGF-β1 10 ng/mL alone,123 ± 11.0%
same,IGFBP-2 in supernatant (% compared to control),primary hPTECs; TGF-β1 10 ng/mL alone,259 ± 49.6%
same,IGFBP-3 in supernatant (% compared to control),primary hPTECs; TGF-β1 10 ng/mL alone,147 ± 7.0%
same,IL1A in supernatant (% compared to control),primary hPTECs; TGF-β1 10 ng/mL alone,109 ± 14.8%
same,IL3 in supernatant (% compared to control),primary hPTECs; TGF-β1 10 ng/mL alone,127 ± 30.6%
same,IL8 in supernatant (% compared to control),primary hPTECs; TGF-β1 10 ng/mL alone,138 ± 48.4%
same,IL12 p70 in supernatant (% compared to control),primary hPTECs; TGF-β1 10 ng/mL alone,74 ± 11.5%
same,IL13 in supernatant (% compared to control),primary hPTECs; TGF-β1 10 ng/mL alone,95 ± 16.4%
same,Kallikrein 3 in supernatant (% compared to control),primary hPTECs; TGF-β1 10 ng/mL alone,75 ± 5.61%
same,LIF in supernatant (% compared to control),primary hPTECs; TGF-β1 10 ng/mL alone,249 ± 32.1%
same,MCP-1 in supernatant (% compared to control),primary hPTECs; TGF-β1 10 ng/mL alone,171 ± 14.3%
same,MMP-9 in supernatant (% compared to control),primary hPTECs; TGF-β1 10 ng/mL alone,41 ± 8.8%
same,PDGF-AA/BB in supernatant (% compared to control),primary hPTECs; TGF-β1 10 ng/mL alone,137 ± 9.7%
same,RAGE in supernatant (% compared to control),primary hPTECs; TGF-β1 10 ng/mL alone,170 ± 16.3%
same,RANTES in supernatant (% compared to control),primary hPTECs; TGF-β1 10 ng/mL alone,140 ± 8.6%
same,Serpin E1 in supernatant (% compared to control),primary hPTECs; TGF-β1 10 ng/mL alone,91 ± 4.7%
same,TFF3 in supernatant (% compared to control),primary hPTECs; TGF-β1 10 ng/mL alone,114 ± 22.2%
same,TNF-α in supernatant (% compared to control),primary hPTECs; TGF-β1 10 ng/mL alone,176 ± 5.5%
same,Thrombospondin-1 in supernatant (% compared to control),primary hPTECs; TGF-β1 10 ng/mL alone,120 ± 24.8%
same,VEGF in supernatant (% compared to control),primary hPTECs; TGF-β1 10 ng/mL alone,209 ± 43.3%
same,ATP release,"Cx43 hemichannels; TGFβ1 10 ng/mL alone, 48 h, removal of extracellular calcium",3.60 ± 0.29 µM
